According to ChEMBL document CHEMBL1126088, “Conformational analysis of dopamine D-2 receptor antagonists of the benzamide series in relation to a recently proposed D-2 receptor-interaction model” (J Med Chem, 1992):

Assay: Effective dose of the compound
Assay type: functional

| Structure (SMILES) | ED50 |
| --- | --- |
| CCN(CC)CCNC(=O)c1cc(Cl)c(N)cc1OC [METOCLOPRAMIDE] | 0.75 mg/kg |
| COc1cc(N)c(Cl)cc1C(=O)NC1CCN2CC(c3ccccc3)CC2C1 (stereo not drawn) | 0.024 mg/kg |
| COc1cc(N)c(Cl)cc1C(=O)NC1CCN(Cc2ccccc2)CC1 [CLEBOPRIDE] | 0.037 mg/kg |
